row,melting point,Structure (SMILES)
1,177 to 179 °C,O=C(O)c1cccc(CN2CCC(c3cn(Cc4ccoc4)c4ncccc34)CC2)c1
2,244 °C,N#Cc1c(N2CCN(C(=O)c3cccs3)CC2)c2cc(F)cnc2[nH]c1=O
3,91 to 97 °C,Fc1ccc(N2CCN(Cc3cn4cc(C(F)(F)F)cc(Cl)c4n3)CC2)cc1
4,99 to 101 °C,CCOC(=O)c1c(CN2CCC(C(=O)OCC)CC2)nc2sc3c(c2c1-c1ccc(OC)c(OC)c1)CCN(C(=O)c1ccc(Cl)cc1)C3
5,120 to 122 °C,CN1CC(CCl)C(c2ccccc2)(c2ccccc2)C1=O (stereo not given)
6,165 to 166 °C,COc1ccc(CNC(=O)c2cccnc2N)cc1
7,90 °C,OC(CCN1CCCC1)c1ccc(C2CCCCC2)c(Cl)c1 (stereo not given)
8,209 to 214 °C,O=C(CC1CCCCC1)Nc1c(Cl)ccc2nc(N3CCC[C@@H](O)C3)ccc12
9,255 to 258 °C,CCCC(=O)c1cc2c(=O)cc(C(=O)O)[nH]c2cc1C
10,169 to 170 °C,O[C@H]1c2cc(OC(c3ccccc3)c3ccccc3)ccc2OC[C@H]1Oc1cccnc1 (relative stereo)
11,268 to 271 °C,CCn1cc(C(=O)O)c(=O)c2cc(F)c(OC3CCN(C)CC3)cc21
12,111 to 112 °C,COc1ccc(C(O)CCSc2ccc(S(N)(=O)=O)s2)cc1 (stereo not given)
13,178 to 187 °C,CC(C)CC(NC(=O)c1ccccc1)C(=O)NC(CCCN(C(=N)NC(=O)OCc1ccccc1)C(=O)OCc1ccccc1)C(=O)Oc1cccc2ccccc12 (stereo not given)
14,80 to 81 °C,COC(=O)c1ccc(OC2=C3N=C4CCCCC4=C3C(Cc3ccc(C)cc3)C=C2)o1 (stereo not given)
15,182 to 186 °C,Cc1cc2nncn2nc1-c1cccc(N)c1
16,145 to 147 °C,O=C1c2cc(Cl)c(Cl)cc2C(O)N1CCO[N+](=O)[O-] (stereo not given)
17,53 to 54 °C,CCCCCCCCCCCCSCC(O)CO (stereo not given)
18,181 to 183 °C,Cc1c(-c2ccccc2)oc2c(C(=O)NCCCN3CCC(C(=O)c4ccc(F)cc4)CC3)cccc2c1=O
19,197 to 198 °C,O=C(NC1CCCCC1)NS(=O)(=O)c1ccc(CCNC(=O)N2CCc3ccccc3C2=O)cc1
20,234 to 235 °C,Cc1cc(C)c2nc(C(=O)O)cc(-c3ccccc3Cl)c2c1
21,211 °C,O=C(O)c1cc(O)c(Cl)c(Cl)c1
22,95 to 98 °C,COCNC(=O)OC(C(Oc1ccc(-c2ccccc2)cc1)n1cncn1)C(C)(C)C (stereo not given)
23,184 to 185 °C,CC(=O)OC1(C(C)=O)C(C)CC2C3CC(C)C4=CC(=O)C=CC4(C)C3(Br)C(O)CC21C (stereo not given)
24,185 to 186 °C,COc1ccc(-c2[nH]c(-c3ccncc3)c(C)c2C(C)=O)cc1

row,melting point,Structure (SMILES)
1,202 to 204 °C,COC(=O)c1nc2cc(OC)ccc2c(O)c1C(=O)OC
2,70 to 72 °C,CC1=C(OS(=O)(=O)c2ccc(C)cc2)C(=O)C(C)O1 (stereo not given)
3,146 to 148 °C,CCN(CC)c1ccc(C(=O)O)nc1
4,147 to 148 °C,COc1ccnc(CCc2nc3cc(-c4ccco4)cnc3[nH]2)c1
5,124 to 126 °C,CN1C(=O)C2CCCN2C(=O)c2ccccc21 (stereo not given)
6,107 °C,C=CCOc1cc(-c2cc(=O)c3c(OCC=C)c(CC=C)c(OCC=C)cc3o2)ccc1OC
7,268 to 273 °C,CC1CC(=O)NN=C1c1ccc(O)cc1 (stereo not given)
8,130 to 131 °C,Cc1ccccc1-c1c(C(=O)N(C)Cc2cc(C(F)(F)F)cc(C(F)(F)F)c2)c(=O)oc2ccccc12
9,208 to 210 °C,Nc1nnc2ccccc2n1
10,297 to 304 °C,O=C(O)c1ccc2c(c1)S(=O)(=O)c1ccccc1S2
11,200 °C,ON=Cc1ccc(-c2ccc(O)cc2)c2ccccc12
12,113 to 114 °C,CNc1ccc(S(=O)(=O)Nc2ccccc2)cc1
13,156 °C,COc1cc(OC)cc(C(C)N(C)CCCOc2ccc(S(=O)(=O)c3c(C(C)C)c4ccccc4n3C)cc2)c1 (stereo not given)
14,95 to 99 °C,CCCCCCCCCCCCCCOc1ccc(C(=O)O)cc1
15,153 °C,CCOC(=O)c1ncc(C)nc1O
16,94 to 97 °C,CCC(=O)c1cc([C@]2(c3cccc(-c4cccnc4F)c3)N=C(N)N(C)C2=O)cn1CC
17,133 °C,CCOC(=O)NC(=O)C(c1ccccc1)c1ccccc1
18,84.5 to 86 °C,CC(C)n1nc(C#Cc2ccccc2F)ccc1=O
19,156 °C,CC#CCOc1ccc(SC(C(=O)NO)c2ccc(OC)cc2)cc1 (stereo not given)
20,128 to 129 °C,COc1ccc(C2=C(c3ccc(S(C)(=O)=O)cc3)CCC2)cc1F
21,192 to 195 °C,O=C(O)c1ccc(CN2C(=O)C3(COc4cc5c(cc43)OCCO5)c3ccccc32)o1 (stereo not given)
22,122 to 124 °C,CCOC(=O)c1ccccc1S(N)(=O)=O
23,96 to 97 °C,CCOC(=O)CCNC=C(C(=O)OCC)C(=O)c1cc(F)c(F)c(F)c1F
24,218 to 220 °C,Cc1ccccc1-c1cnc2c(C(F)(F)F)cccc2c1-c1cccc(NC(=O)Nc2ccccc2F)c1

row,melting point,Structure (SMILES)
1,165 to 169 °C,N[C@@H](Cc1c[nH]c2ccccc12)C(=O)N(N)C(=O)[C@H](Cc1c[nH]cn1)NC(=O)[C@@H]1CCC(=O)N1
2,56 to 61 °C,O=C(NCCCCCCOC(=O)N1CCC(OC(=O)N2CCCCC2)CC1)Oc1ccc(Oc2ccccc2)cc1
3,108 to 110 °C,Nc1ccc2ccccc2c1S
4,162 °C,CC(=O)NCCSc1cc(N)c([N+](=O)[O-])cc1N
5,108 to 109 °C,CCOC(=O)c1ccc(NCc2ccc(Cl)s2)cc1
6,196 to 197 °C,COc1cccc(-c2c(C(=O)O)c(=O)n(C)c3ncccc23)c1
7,170 to 173 °C,O=C(O)/C=C/C(=O)/C=C/c1ccc2c(c1)OCO2
8,175 to 177 °C,COc1nc(NC(=O)NS(=O)(=O)c2ccccc2S(=O)(=O)N2CCC2)nc(OC)n1
9,205 to 206 °C,O=C(O)c1ccccc1Nc1ccc(I)cc1
10,190 to 191 °C,Cc1ccccc1-c1c(-c2ccc(S(C)(=O)=O)cc2)oc2ccccc2c1=O
11,223 to 225 °C,O=C1c2ccccc2C(=O)N1CCCCC1N=NC(=S)N1 (stereo not given)
12,164 to 166 °C,Nc1nccn2c(C3CCC3)nc(-c3ccccc3)c12
13,130 to 140 °C,Cc1nc(O)cc(C2(c3ccc(Cl)cc3)CCC2)n1
14,177 to 181 °C,O=C(O)c1cc2cc(Cl)ccc2nc1NC(Cc1cccc(F)c1)C(=O)O (stereo not given)
15,160 to 162 °C,CCCCSC1(SCCCC)CCC2C3CCC4=CC(=O)C=CC4(C)C3(F)C(O)CC21C (stereo not given)
16,118 to 120 °C,Cc1nc2c(OCc3ccccc3)cc(C(=O)N(C)C)cc2n1COCC[Si](C)(C)C
17,205 to 206 °C,Cc1ccc(-c2[nH]c(C3CCCCC3)nc2C(=O)O)cc1
18,246 to 247 °C,NC(=O)C1CCc2[nH]c3ccc(Cl)c(Cl)c3c2C1 (stereo not given)
19,91 to 93 °C,COCC(c1cc(C)ccc1C)S(=O)(=O)c1ccccn1 (stereo not given)
20,194 to 197 °C,CCOCCN(CC)c1ccc(-c2ccc3c(c2)C=C(C(=O)Nc2ccc(CN(C)C4CCOCC4)cc2)CCS3(=O)=O)cc1
21,145 °C,COc1ccc(C2CSc3ccccc3NC2=O)cc1 (stereo not given)
22,83 to 92 °C,CCC(C(=O)O)(c1ccc(OCc2ccc3ccccc3n2)cc1)c1ccc(OCc2ccc3ccccc3n2)cc1
23,180 to 182 °C,CC(Sc1nc(N)cc(C(F)(F)F)n1)c1cc2ccoc2cn1 (stereo not given)
24,119 to 120 °C,COc1ccc(OCCC2CCN(c3cc(Cl)nnc3Cl)CC2)cc1

row,melting point,Structure (SMILES)
1,56 to 58 °C,CN1CCN(C)C1=Nc1ccccc1CN1CCOCC1
2,103 to 105 °C,CS(=O)(=O)OCCCCCCNc1ccc2nncn2n1
3,128 °C,OC(Cn1cncn1)(c1ccc(Cl)cc1)C1(F)CC1 (stereo not given)
4,90 °C,CC1(C)C=C(c2ccccn2)c2cc(C(F)(F)F)ccc2OC1
5,59 to 60 °C,CCCc1ccc(C(O)(c2c(C)cc(C)c(C)c2OC)C(C)C)cc1 (stereo not given)
6,169 to 172 °C,COc1cc2oc(=O)c(CCN3CCN(c4ccccc4)CC3)c(C)c2cc1OC
7,115 to 118 °C,CCCn1c(=O)c2c(C(=O)OCCN(C)C)ncn2c2ccccc21
8,103 to 107 °C,Nc1ccccc1C(=O)CCC(=O)O
9,99 to 100 °C,Cc1cc(C=Cc2ccccc2OCC2CO2)on1 (stereo not given)
10,194 to 195 °C,COc1ccc(Oc2c(-c3ccc(S(C)(=O)=O)cc3)cnn(CC(F)(F)F)c2=O)cc1
11,187 to 190 °C,CC1=C(C(=O)O)C(c2cccc(Cl)c2Cl)C(c2nnco2)=C(C)N1 (stereo not given)
12,73.5 to 77 °C,COc1ccccc1Oc1c(NS(=O)(=O)c2ccc(C(C)(C)C)cc2)nc(OCCO)nc1OCCOc1ncc(Br)cn1
13,138 to 140 °C,N#CCCOc1ccc(OCCC#N)cc1
14,186 to 188 °C,O=C(O)c1ccc(S(=O)(=O)Oc2ccc(-c3ccc(-c4c(Cc5ccccc5)oc5ccccc45)cc3)cc2)cc1
15,214 to 216 °C,Cc1[nH]c(-c2ccccc2)c(N)c1C(=O)c1ccccc1Cl
16,227 to 230 °C,Cc1cc(C(C)(C)C)c(O)c(C)c1COC(=O)c1ccc(C(=O)OCc2c(C)cc(C(C)(C)C)c(O)c2C)cc1
17,173 to 174 °C,CC(C)Oc1ccc(C(=O)O)c(Cl)n1
18,183 to 185 °C,Cc1ccnc2c([N+](=O)[O-])cc3c(c12)OCO3
19,198 to 200 °C,O=c1cc(-c2ccccc2)cc2n1CCN2
20,180 to 184 °C,CC(=O)OC1CC2(C)C(CCC2(Sc2ccccc2)Sc2ccccc2)C2CCC3=CC(=O)C=CC3(C)C12F (stereo not given)
21,93 to 94 °C,CCOc1c(OC)cccc1-c1nc2ccc(C(=O)Cl)cc2c(=O)[nH]1
22,137 to 139 °C,Cc1ccc(S(=O)(=O)NC2CCCCC2NC(=O)OC(C)(C)C)cc1 (stereo not given)
23,277 °C,CC(C)(C)c1ccc2sc3cc(-c4nnn[nH]4)ccc3c(=O)c2c1

row,Structure (SMILES),melting point
1,CN1CC=C(c2c[nH]c3ccc(CCNS(C)(=O)=O)cc23)CC1,170 to 172 °C
2,CCC1(c2cccc(O)c2)CCCCN(C)C1 (stereo not given),128 to 133 °C
3,Cc1ccc(-c2cncc(CN3CC=C(c4ccccc4)CC3)c2)cc1,133 to 135 °C
4,[N-]=[N+]=NC(=O)c1csc(Cl)n1,> 250 °C
5,Cc1ccnc2c1N=C(Cl)c1cccnc1N2C1CC1,196 to 198 °C
